Experimental data reported in patent publication US8277842B1, “Enteric-coated HT-2157 compositions and methods of their use” (Dart NeuroScience (Cayman) Ltd., priority 2012, dated 2012).

How the values were obtained:
[1] = Repeat-dose animal toxicology studies, PO; format: in vivo, mice, rats, dogs; settings: non-enteric coated
[2] = Metabolite HT-2800 in plasma of dogs dosed with HT-2157; format: in vivo, dog; settings: plasma collected from dogs dosed with HT-2157
Procedure: (§1) Such HT-2157 administration studies were carried out in several animal models, including rats, dogs (as well as mice). In this regard, the major human metabolite of HT-2157, HT-2800, was found in human, mouse, and monkey microsomes following incubation with the HT-2157 compound, but it was not detected in rat or dog microsomes or in plasma collected from dogs dosed with HT-2157.

[3] = Metabolite HT-2800 in microsomes incubated with HT-2157, monkey; format: in vitro ADME
Procedure: as §1

[4] = Metabolite HT-2800 in microsomes incubated with HT-2157, human; format: in vitro ADME
Procedure: as §1

[5] = Metabolite HT-2800 in microsomes incubated with HT-2157, mouse; format: in vitro ADME
Procedure: as §1

in vivo = settings: rat, po; for AUC(0-t): AUC0-24 of HT-2157 in plasma; for Cmax: Cmax of HT-2157 in plasma; for NOEL / NOEL (first NOEL column) / non-toxic dose level: 28 days
Procedure: (§2) Consequently, separate toxicokinetic studies directed to […] (without an enteric coating) were performed in rat and in dog, which is considered the more sensitive species. […] In these studies, the non-toxic dose level for oral administration of HT-2157 over 28 days was 30 mg/kg/day for female rats, 100 mg/kg/day for male rats and 50 mg/kg/day for dogs (both sexes). Table 1 lists the mean Cmax and AUC values of HT-2157 in the plasma associated with these dosages: […]

[6] = 28-day oral toxicity study with non-enteric coated HT-2157, dog; format: in vivo; settings: for Cmax / AUC(0-t): plasma, 50 mg/kg/day, at NOEL; for AUC(0-t): read-out: AUC0-24 of HT-2157 in plasma
Procedure: as §2

[7] = Ninety-day study with HT-2157, methemoglobin formation, rats; format: in vivo
From the text: (§3) These findings indicate that a process of hemolytic anemia and compensatory hematopoietic response to anemia occurred in the animals. The hemolytic anemia was reversible upon discontinuation of drug treatment. In animals at high doses, there were also increases in methemoglobin of between 30 and 40% in treatment as compared to control animals. These increases resolved 1 to 2 weeks after discontinuation of dosing.

[8] = after systemic administration; Oegren et al. 2006; cited from earlier work
[9] = Ninety-day study with HT-2157, methemoglobin formation, dogs; format: in vivo
From the text: as §3

[10] = Ninety-day study with HT-2157, methemoglobin formation, mice; format: in vivo
From the text: as §3

[11] = Metabolite HT-2800 in microsomes incubated with HT-2157, dog; format: in vitro ADME
Procedure: as §1

[12] = Metabolite HT-2800 in microsomes incubated with HT-2157, rat; format: in vitro ADME
Procedure: as §1

[13] = female, female dog, day 1 of dosing
[14] = female, female dog, day 28 of dosing
[15] = male, male dog, day 1 of dosing
[16] = male, male dog, day 28 of dosing

O=C1C(=Nc2cccc(C(F)(F)F)c2)c2ccccc2N1c1ccccc1 [HT-2157]
drug-related findings in repeat-dose toxicology ([1]; mice up to 3 months, rats up to 1 year, dogs up to 9 months): dose-dependent shifts in hemoglobin fractions (methemoglobin, carboxyhemoglobin, oxyhemoglobin) and mild to moderate reversible hemolytic anemia with associated compensatory responses
metabolite HT-2800 in plasma [2]: not detected
metabolite HT-2800 following incubation with HT-2157 [3]: found
metabolite HT-2800 following incubation with HT-2157 [4]: found
metabolite HT-2800 following incubation with HT-2157 [5]: found
AUC0-24 of HT-2157 in plasma (in vivo; female, 30 mg/kg/day): 235 ng·h/mL
AUC(0-t) (in vivo; female, 30 mg/kg/day): 283 ng·h/mL
Cmax (in vivo; female, 30 mg/kg/day): 109 ng/mL
NOEL (in vivo; female): 177
NOEL (first NOEL column) (in vivo; female): 30
non-toxic dose level (in vivo; female): 30 mg/kg/day
AUC0-24 of HT-2157 in plasma (in vivo; male, 100 mg/kg/day): 1445 ng·h/mL
AUC(0-t) (in vivo; male, 100 mg/kg/day): 1380 ng·h/mL
Cmax (in vivo; male, 100 mg/kg/day): 252 ng/mL
NOEL (in vivo; male): 590
NOEL (first NOEL column) (in vivo; male): 100
non-toxic dose level (in vivo; male): 100 mg/kg/day
non-toxic dose level ([6]; both, in vivo, 28 days): 50 mg/kg/day
NOEL ([6]; female, in vivo, 28 days): 1000
NOEL (first NOEL column) ([6]; female, in vivo, 28 days): 50
Cmax [6, 13]: 162 ng/mL
AUC(0-t) [6, 13]: 571 ng·h/mL
Cmax [6, 14]: 104 ng/mL
AUC(0-t) [6, 14]: 799 ng·h/mL
NOEL ([6]; male, in vivo, 28 days): 1000
NOEL (first NOEL column) ([6]; male, in vivo, 28 days): 50
Cmax [6, 15]: 99 ng/mL
AUC(0-t) [6, 15]: 676 ng·h/mL
Cmax [6, 16]: 87.1 ng/mL
AUC(0-t) [6, 16]: 550 ng·h/mL
dose with statistically significant methemoglobin formation [7]: 150 mg/kg/day
blood-brain barrier passage [8]: can cross the blood-brain barrier
dose with statistically significant methemoglobin formation [9]: ≥ 30 mg/kg/day
dose with statistically significant methemoglobin formation [10]: 750 mg/kg/day
metabolite HT-2800 following incubation with HT-2157 [11]: not detected
metabolite HT-2800 following incubation with HT-2157 [12]: not detected

O=C1C(=Nc2cccc(C(F)(F)F)c2)c2ccccc2N1c1ccc(O)cc1 [HT-2800]
drug-related findings in repeat-dose toxicology ([1]; rats up to 6 months, dogs 9 months): dose-dependent shifts in hemoglobin fractions (methemoglobin, carboxyhemoglobin, oxyhemoglobin) and mild to moderate reversible hemolytic anemia with associated compensatory responses
